This note sets out measurements from US8663651B2, “T-140 peptide analogs having CXCR4 super-agonist activity for immunomodulation” (Biokine Therapeutics Ltd., priority 2006, dated 2014).

Common to all, as to format: cell-based, human
One series deals with PC3-CXCR4.5 cells. Nature of the series: MIP3α secretion by PC3-CXCR4.5 cells (CXCR4-overexpressing clone), assessed by ELISA. As to conditions: for induced MIP3α secretion after silencing of CXCR4 expression: CXCL12 500 ng/ml or 4F-benzoyl-TN14003 8 μM for additional 48 hours. As to the method:
(§1) In this example, regulation of the chemokine MIP3α (macrophage inflammatory protein 3α) was examined. […] In FIG. 1B, PC3 (left panel) and PC3-CXCR4.5 (right panel) cells were stimulated with the indicated concentrations of CXCL12 for 48 hours and MIP3α secretion was assessed by ELISA. The results represent the average of triplicates±STDEV.
(§2) The effects of the CXCR4 antagonist AMD3100 and of 4F-benzoyl-TN14003 (4FB-TN14003), hitherto known as a CXCR4 antagonist, on MIP3α secretion were further tested. […] In FIG. 1C, CXCR4 signaling in PC3 (left panel) and PC3-CXCR4.5 (right panel) cells was inhibited with anti-CXCL12 antibodies (αCXCL12) and Pertussis toxin (PTX) treatments alone or in combination with CXCL12, as indicated. Secretion of MIP3α was assessed by ELISA. The results represent the average of triplicates±STDEV.
(§3) The Dicer-substrate siRNA duplexes of CXCR4 (NCBI accession number NM 003467): sense 5′-[…]-3′ (SEQ ID NO:78), antisense 5′ […]-3′ (SEQ ID NO:79) were purchased from IDT, Coralville, Iowa. The non-specific siRNA duplexes were used as a control. PC3-CXCR4.5 cells were transfected with 200 nmol/L siRNA in serum-free medium using Oligofectamine reagent (Invitrogen, Carlsbad, Calif., USA), according to the manufacturer's instructions. To determine the efficiency of CXCR4RNA interference, at 48 hours post-transfection, the cells were analyzed for CXCR4 expression on mRNA and cell-surface levels.
In FIG. 2C, control (gray) and CXCR4 (black) siRNA-transfected PC3-CXCR4.5 cells at 48 hours post-transfection were incubated with CXCL12 500 ng/ml and 4F-benzoyl-TN14003 8 μM (4FB-TN14003) for additional 48 hours. MIP3α secretion was assessed by ELISA. The results represent the average of triplicates±STDEV.
(In an ELISA, binding on a coated surface is turned into a signal by an enzyme label.)

Another series has as its system normal keratinocytes. Nature of the series: MIP3α secretion by normal keratinocytes, ELISA. As to conditions: following stimulation. The method, then:
(§4) The expression of MIP3α in a range of carcinoma cell lines and normal epithelial cells was tested by ELISA. […] Bone marrow endothelial cells, BMEC, glioblastoma cells U87, breast carcinoma cells MDA231, also were negative for MIP3α secretion. […] In addition, MIP3α was also secreted by normal keratinocytes (FIG. 4D) and primary blasts from peripheral blood of patients with AML (FIG. 4C). In FIG. 4, acute promyelocytic leukemia cell lines NB4 (FIG. 4A) and HL60 (FIG. 4B), primary peripheral blasts from the patient with acute myelocytic leukemia (FIG. 4C) and normal keratinocytes (FIG. 4D) were stimulated with the indicated concentration of CXCL12 for 48 hours. The secretion of MIP3α was assayed by ELISA. The results of experiments with NB4, HL60 and keratinocytes represent the average of triplicates±STDEV. […] Secretion of MIP3α was assessed by ELISA. […] The results represent the average of triplicates±STDEV.

Another series has as its system HL-60. The experiment in a line: MIP3α secretion by HL-60 cells, ELISA. As to conditions: following stimulation. As to the method:
as §4

A further series concerns NB4. Nature of the series: MIP3α secretion by NB4 cells, ELISA. As to conditions: following stimulation. As to the method:
as §4

In another series the test system is PC3 cells. Nature of the series: MIP3α secretion by PC3 cells, assessed by ELISA. The method, then:
as §1, §2

The subject of a further series is CXCR4. The experiment in a line: CXCR4 silencing by siRNA in PC3-CXCR4.5 cells (RT-PCR and FACS). As to conditions: 200 nmol/L siRNA, 48 hours post-transfection. The method, then: as §3
In FIG. 2A, PC3-CXCR4.5 cells 48 hours following the transfection with CXCR4-specific siRNA were stained for the control and CXCR4 antibodies and evaluated by FACS. Left panel, non-transfected cells; middle panel, cells transfected with a control (non-specific) siRNA; right panel, cells transfected with a siRNA directed to CXCR4 (CXCR4 siRNA). Cells were stained for the control (IgG2a-PE, full histograms) and CXCR4 antibodies (IgG2a-12G5, empty histograms).
In FIG. 2B, RT-PCR analysis of CXCR4 of the siRNA-transfected PC3-CXCR4.5 cells 48 hours following the transfection is presented. […] Gene expression was determined using primers specific to CXCR4, or to the housekeeping gene β-actin as a control. […]

[1] abbreviates: CXCR4 siRNA-transfected PC3-CXCR4.5 cells.

Square brackets hold non-standard residues; d marks the D form. * marks the point of attachment. Benzoyl(4-F) = O=C(c1ccc(F)cc1)*; Cit = NC(=O)NCCC[C@H](N)C(=O)O

Take “CXCL12: chemokine, CXCR4's only natural ligand”: the “extent of MIP3α secretion induction compared with 4F-benzoyl-TN14003” value with PC3-CXCR4.5 cells (CXCR4-expressing cell lines (general statement)) is on record as “to a lesser extent than 4F-benzoyl-TN14003”. The “induced MIP3α secretion after silencing of CXCR4 expression” value in the series on PC3-CXCR4.5 cells (setting [1]) was “inhibited”. The MIP3α secretion entry was “increased the secretion of MIP3α” in the series with PC3-CXCR4.5 cells (PC3-CXCR4.5 cells stimulated with increasing doses of CXCL12 for 48 hours); “increased” in the series on normal keratinocytes; “increased” in the series with HL-60; “increased” in the series with NB4; “increased the secretion of MIP3α” in the series with PC3 cells (PC3 cells stimulated with increasing doses of CXCL12 for 48 hours).

Regarding `c1cc(CN2CCCNCCNCCCNCC2)ccc1CN1CCCNCCNCCCNCC1` [AMD3100, reference compound], the “induction of MIP3α secretion in an agonist manner” value with PC3-CXCR4.5 cells (PC3-CXCR4.5 cells) is “but not AMD3100 induced”.

For the compound “4F-benzoyl-Arg-Arg-Nal-Cys-Tyr-Cit-Lys-DLys-Pro-Tyr-Arg-Cit-Cys-Arg-NH2 ({Benzoyl(4-F)}-RR[Nal]CY[Cit]K[dK]PYR[Cit]CR-NH2; cysteine pairing not given here) [4F-benzoyl-TN14003]”, the “induced MIP3α secretion after silencing of CXCR4 expression” value in the series on PC3-CXCR4.5 cells (setting [1]) is given as “inhibited”. In addition, the “induction of MIP3α secretion in an agonist manner” value in the series with PC3-CXCR4.5 cells (PC3-CXCR4.5 cells) and in the series with PC3 cells (PC3 cells) was “induced in both cell lines MIP3α secretion in an agonist manner” each time. In the series on PC3-CXCR4.5 cells (concluded from CXCR4-dependent MIP3α secretion in PC3-CXCR4.5 cells), the “mode of action on CXCR4” value was “super agonist for CXCR4”. Further, the MIP3α secretion result with normal keratinocytes, in the series with HL-60 and with NB4 was “increased” in each case.

In the case of “siRNA specific for CXCR4: Dicer-substrate siRNA duplexes of CXCR4 (SEQ ID NO:78 sense, SEQ ID NO:79 antisense), purchased from IDT (sense UAAAAUCUUCCUGCCCACCAUCUAC; antisense GUAGAUGGUGGGCAGGAAGAUUUUAUU; Dicer-substrate duplex, purchased, chemistry not given here) [reference compound]”, the “spontaneous MIP3α secretion after silencing of CXCR4 expression” value in the series on PC3-CXCR4.5 cells (setting [1]) is given as “inhibited the spontaneous”. Also, the “CXCR4 mRNA and cell surface expression” value with CXCR4 was “reduced CXCR4 mRNA and cell surface expression”.

As for Pertussis toxin [reference compound], the MIP3α secretion entry is “did not demonstrate an inhibitory effect on the level of MIP3α” with PC3-CXCR4.5 cells (PC3-CXCR4.5 cells, in combination with CXCL12); “secretion of MIP3α was decreased” in the series with PC3-CXCR4.5 cells (PC3-CXCR4.5 cells, treatment alone); “effectively inhibited the secretion of MIP3α” with PC3 cells (PC3 cells, treatment alone or in combination with CXCL12).
